# Reference: ChEMBL document CHEMBL4152365, “Discovery of DS-6930, a potent selective PPARγ modulator. Part I: Lead identification” (Bioorg Med Chem, 2018)
# Legend:
# [1] = AUC (0 to 24 hrs) in Wistar-Imamichi rat at 30 mg/kg, po via gavage once daily for 28 days measured on day 28 post dose; type: ADME, organism-based; set-up: time < 24 hr, dose 30 mg/kg, route oral; settings: in vivo
# Rattus norvegicus [2] = assay: Toxicity in Zucker diabetic fatty rat assessed as body weight gain administered orally once daily for 14 day; type: organism-based; settings: in vivo, po, 336 h
# [3] = Cmax in Zucker diabetic fatty rat at 30 mg/kg, po dosed once daily for 14 days and followed by additional administeration on day 15; type: ADME, organism-based; set-up: dose 30 mg/kg, route oral; settings: in vivo
# Rattus norvegicus [4] = assay: Toxicity in Zucker diabetic fatty rat assessed as body weight gain at 0.3 mg/kg, po administered once daily for 14 days relative to control; type: organism-based; settings: in vivo, 336 h
# Rattus norvegicus [5] = assay: Toxicity in Zucker diabetic fatty rat assessed as body weight gain at 3 mg/kg, po administered once daily for 14 days relative to control; type: organism-based; settings: in vivo, 336 h
# Rattus norvegicus [6] = assay: Glucose-lowering effect in Zucker diabetic fatty rat assessed as reduction in plasma glucose level at 30 mg/kg, po administered once daily for 14 days measured on day 14 post last dose relative to control; type: functional; set-up: scale not given: the % may be the effect or the level left
# [7] = AUC (0 to 24 hrs) in Wistar-Imamichi rat at 100 mg/kg, po via gavage once daily for 28 days measured on day 28 post dose; type: ADME, organism-based; set-up: time < 24 hr, dose 100 mg/kg, route oral; settings: in vivo
# [8] = Cmax in Zucker diabetic fatty rat at 0.3 mg/kg, po dosed once daily for 14 days and followed by additional administeration on day 15; type: ADME, organism-based; set-up: dose 0.3 mg/kg, route oral; settings: in vivo
# [9] = AUC (0 to 24 hrs) in Zucker diabetic fatty rat at 3 mg/kg, po dosed once daily for 14 days and followed by additional administeration on day 15; type: ADME, organism-based; set-up: dose 3 mg/kg, time < 24 hr, route oral; settings: in vivo
# [10] = Tmax in Wistar-Imamichi rat at 100 mg/kg, po via gavage once daily for 28 days measured on day 28 post dose; type: ADME, organism-based; settings: in vivo
# Rattus norvegicus [11] = assay: Glucose-lowering effect in Zucker diabetic fatty rat assessed as reduction in plasma glucose level at 0.3 mg/kg, po administered once daily for 14 days measured on day 14 post last dose relative to control; type: functional; set-up: scale not given: the % may be the effect or the level left
# Rattus norvegicus [12] = assay: Toxicity in Wistar-Imamichi rat assessed as histopathological changes in liver at 30 to 300 mg/kg, po administered via gavage once daily for 28 days; type: organism-based; settings: in vivo, 672 h
# Mus musculus [13] = assay: Toxicity in hyperglycemic KK/Ta mouse assessed as body weight gain at 30 mg/kg/day, po administered through diet for 3 days relative to control; type: organism-based; settings: in vivo, 72 h
# [14] = Tmax in Zucker diabetic fatty rat at 3 mg/kg, po dosed once daily for 14 days and followed by additional administeration on day 15; type: ADME, organism-based; settings: in vivo
# Rattus norvegicus [15] = assay: Toxicity in Wistar-Imamichi rat assessed as reduction in RBC count at 30 to 300 mg/kg, po administered via gavage once daily for 28 days; type: organism-based; settings: in vivo, 672 h
# [16] = molecular target: T1, Peroxisome proliferator-activated receptor alpha (Homo sapiens, UniProt Q07869); assay: Agonist activity at recombinant human GAL4-DBD fused PPARalpha LBD expressed in COS7 cells after 24 hrs by luciferase reporter gene assay; type: cell-based
# T1 sequence (Q07869 whole entry): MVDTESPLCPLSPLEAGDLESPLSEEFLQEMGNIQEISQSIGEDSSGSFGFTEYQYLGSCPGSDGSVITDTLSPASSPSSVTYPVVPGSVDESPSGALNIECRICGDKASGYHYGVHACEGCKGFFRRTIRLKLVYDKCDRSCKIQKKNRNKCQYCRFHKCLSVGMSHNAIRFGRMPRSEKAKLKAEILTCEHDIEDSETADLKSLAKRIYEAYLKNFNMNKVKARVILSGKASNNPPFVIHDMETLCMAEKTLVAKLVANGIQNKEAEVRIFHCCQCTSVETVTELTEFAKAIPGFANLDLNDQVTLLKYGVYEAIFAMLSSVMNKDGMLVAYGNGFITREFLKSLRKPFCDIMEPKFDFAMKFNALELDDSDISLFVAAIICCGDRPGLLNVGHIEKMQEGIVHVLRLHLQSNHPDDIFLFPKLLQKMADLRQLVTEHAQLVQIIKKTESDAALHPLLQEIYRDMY
# [17] = Tmax in Wistar-Imamichi rat at 300 mg/kg, po via gavage once daily for 28 days measured on day 28 post dose; type: ADME, organism-based; settings: in vivo
# Mus musculus [18] = assay: Glucose-lowering effect in hyperglycemic KK/Ta mouse assessed as reduction in plasma glucose level at 30 mg/kg/day, po administered through diet for 3 days relative to control; type: functional; set-up: scale not given: the % may be the effect or the level left
# Rattus norvegicus [19] = assay: Toxicity in Wistar-Imamichi rat assessed as death at 30 to 300 mg/kg, po administered via gavage once daily for 28 days; type: organism-based; settings: in vivo, 672 h
# Rattus norvegicus [20] = assay: Toxicity in Zucker diabetic fatty rat assessed as body weight gain at 30 mg/kg, po administered once daily for 14 days relative to control; type: organism-based; settings: in vivo, 336 h
# Rattus norvegicus [21] = assay: Toxicity in Wistar-Imamichi rat assessed as effect on hematocrit at 30 to 300 mg/kg, po administered via gavage once daily for 28 days; type: organism-based; settings: in vivo, 672 h
# Rattus norvegicus [22] = assay: Glucose-lowering effect in Zucker diabetic fatty rat assessed as reduction in plasma glucose level at 3 mg/kg, po administered once daily for 14 days measured on day 14 post last dose relative to control; type: functional; set-up: scale not given: the % may be the effect or the level left
# [23] = AUC (0 to 24 hrs) in Zucker diabetic fatty rat at 0.3 mg/kg, po dosed once daily for 14 days and followed by additional administeration on day 15; type: ADME, organism-based; set-up: time < 24 hr, dose 0.3 mg/kg, route oral; settings: in vivo
# Rattus norvegicus [24] = assay: Toxicity in Wistar-Imamichi rat assessed as clinical abnormality at 30 to 300 mg/kg, po administered via gavage once daily for 28 days; type: organism-based; settings: in vivo, 672 h
# [25] = Cmax in Zucker diabetic fatty rat at 3 mg/kg, po dosed once daily for 14 days and followed by additional administeration on day 15; type: ADME, organism-based; set-up: dose 3 mg/kg, route oral; settings: in vivo
# [26] = Cmax in Wistar-Imamichi rat at 0.3 mg/kg, po via gavage once daily for 28 days measured on day 28 post dose; type: ADME, organism-based; set-up: dose 0.3 mg/kg, route oral; settings: in vivo
# [27] = Cmax in Wistar-Imamichi rat at 30 mg/kg, po via gavage once daily for 28 days measured on day 28 post dose; type: ADME, organism-based; set-up: dose 30 mg/kg, route oral; settings: in vivo
# [28] = AUC (0 to 24 hrs) in Wistar-Imamichi rat at 300 mg/kg, po via gavage once daily for 28 days measured on day 28 post dose; type: ADME, organism-based; set-up: dose 300 mg/kg, time < 24 hr, route oral; settings: in vivo
# Rattus norvegicus [29] = assay: Toxicity in Wistar-Imamichi rat assessed as elevation in AST activity at 30 to 300 mg/kg, po administered via gavage once daily for 28 days; type: organism-based; settings: in vivo, 672 h
# [30] = Tmax in Wistar-Imamichi rat at 30 mg/kg, po via gavage once daily for 28 days measured on day 28 post dose; type: ADME, organism-based; settings: in vivo
# [31] = Tmax in Zucker diabetic fatty rat at 0.3 mg/kg, po dosed once daily for 14 days and followed by additional administeration on day 15; type: ADME, organism-based; settings: in vivo
# [32] = Tmax in Zucker diabetic fatty rat at 30 mg/kg, po dosed once daily for 14 days and followed by additional administeration on day 15; type: ADME, organism-based; settings: in vivo
# [33] = Metabolic stability in rat liver microsomes after 0.5 hrs; type: ADME, microsome; settings: read-out: Stability
# [34] = Cmax in Wistar-Imamichi rat at 100 mg/kg, po via gavage once daily for 28 days measured on day 28 post dose; type: ADME, organism-based; set-up: dose 100 mg/kg, route oral; settings: in vivo
# Rattus norvegicus [35] = assay: Toxicity in Wistar-Imamichi rat assessed as elevation in ALT activity at 30 to 300 mg/kg, po administered via gavage once daily for 28 days; type: organism-based; settings: in vivo, 672 h
# [36] = AUC (0 to 24 hrs) in Zucker diabetic fatty rat at 30 mg/kg, po dosed once daily for 14 days and followed by additional administeration on day 15; type: ADME, organism-based; set-up: time < 24 hr, dose 30 mg/kg, route oral; settings: in vivo
# [37] = Cmax in Wistar-Imamichi rat at 300 mg/kg, po via gavage once daily for 28 days measured on day 28 post dose; type: ADME, organism-based; set-up: dose 300 mg/kg, route oral; settings: in vivo
# Rattus norvegicus [38] = assay: Toxicity in Wistar-Imamichi rat assessed as effect on hemodilution by measuring increase in heart weight at 300 mg/kg, po administered via gavage once daily for 28 days; type: organism-based; settings: in vivo, 672 h
# [39] = Plasma concentration in hyperglycemic KK/Ta mouse at 30 mg/kg/day, po administered through diet for 3 days measured on day 3 post last dose; type: ADME, organism-based
# [40] = AUC (0 to 24 hrs) in Wistar-Imamichi rat at 0.3 mg/kg, po via gavage once daily for 28 days measured on day 28 post dose; type: ADME, organism-based; set-up: time < 24 hr, dose 0.3 mg/kg, route oral; settings: in vivo
compound,measurement,setting,value
Cn1c(COc2cccc(C(=O)O)c2)nc2ccc(Oc3ccc(Cl)c(F)c3)cc21,AUC at 24 h,[1],93700 ng·h/mL
same,Activity,Rattus norvegicus [2],Dose-dependent effect
same,Cmax,[3],8080 ng/mL
same,Activity,Rattus norvegicus [4],2.3%
same,Activity,Rattus norvegicus [5],12.4%
same,Activity,Rattus norvegicus [6],74.9%
same,AUC at 24 h,[7],192 µg·h/mL
same,Cmax,[8],180 ng/mL
same,AUC at 24 h,[9],6750 ng·h/mL
same,Tmax,[10],5 h
same,Activity,Rattus norvegicus [11],16.6%
same,Activity,Rattus norvegicus [12],Non-Toxic
same,Activity,Mus musculus [13],4.4%
same,Tmax,[14],2.4 h
same,Activity,Rattus norvegicus [15],Non-Toxic
same,EC50,[16],> 10 µM
same,Tmax,[17],3 h
same,Activity,Mus musculus [18],43.2%
same,Activity,Rattus norvegicus [19],Non-Toxic
same,Activity,Rattus norvegicus [20],16.7%
same,Activity,Rattus norvegicus [21],Non-Toxic
same,Activity,Rattus norvegicus [22],43.8%
same,AUC at 24 h,[23],1740 ng·h/mL
same,Activity,Rattus norvegicus [24],Non-Toxic
same,Cmax,[25],920 ng/mL
same,Cmax,[26],180 ng/mL
same,Cmax,[27],9100 ng/mL
same,AUC at 24 h,[28],190 µg·h/mL
same,Activity,Rattus norvegicus [29],Toxic
same,Tmax,[30],4 h
same,Tmax,[31],6.8 h
same,Tmax,[32],2 h
same,remaining at 0.5 h,[33],94%
same,Cmax,[34],14900 ng/mL
same,Activity,Rattus norvegicus [35],Toxic
same,AUC at 24 h,[36],55800 ng·h/mL
same,Cmax,[37],22600 ng/mL
same,Activity,Rattus norvegicus [38],9.9%
same,concentration at 72 h,[39],570 ng/mL
same,AUC at 24 h,[40],1740 ng·h/mL
